Molecular target: T1, P2X1 receptor (Homo sapiens, UniProt P51575)
T1 construct: made in house
T1 sequence (P51575 1-399): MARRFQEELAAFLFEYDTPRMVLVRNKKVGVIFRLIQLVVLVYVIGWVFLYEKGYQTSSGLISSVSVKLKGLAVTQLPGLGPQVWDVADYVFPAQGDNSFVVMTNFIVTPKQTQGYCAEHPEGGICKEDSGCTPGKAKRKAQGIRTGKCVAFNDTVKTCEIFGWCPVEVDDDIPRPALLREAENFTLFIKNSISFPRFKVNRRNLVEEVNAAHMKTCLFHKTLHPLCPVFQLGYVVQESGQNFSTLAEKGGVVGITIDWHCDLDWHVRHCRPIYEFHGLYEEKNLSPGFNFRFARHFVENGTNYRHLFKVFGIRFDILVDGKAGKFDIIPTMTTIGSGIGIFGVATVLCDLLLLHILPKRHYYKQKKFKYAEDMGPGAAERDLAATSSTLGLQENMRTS
Assay: Single molecule stochastic binding of ATP* to purified P2X1 reconstituted in lipid bilayers
Conditions: corrected for photophysical blinking and photochemical bleach; compared with bulk measurements
Excerpt: Plasmids: A FLAG-tagged human P2X1 subunit construct was generated by fusion PCR, and cloned together with an IRES-IFP1.4 fusion PCR product as a three-point ligation into the Mlul/Spel digested pLV-T backbone (see Shu, X.; Royant, A.; Lin, M. Z.; Aguilera, T. A.; Lev-Ram, V.; Steinbach, P. A.; Tsien, R. Y. Science 2009, 324, 804; and Marquis, J.; Kampfer, S. S.; Angehrn, L.; Schumperli, D. Gene therapy 2009, 16, 70.)
Protein Purification: HEK 293T cells stably expressing the FLAG-P2X1 receptor were grown as monolayers in T300 plates. At a density of 80%, cells were washed once with phosphate buffered saline (PBS (mM); 0.1 NaCl, 2.0 Na2HPO4, 0.54 KCl, 0.4 KH2PO4, pH 7.4), mechanically detached into PBS, collected by centrifugation at 500 g for 5 min, snap frozen in liquid N2 and stored at −70° C. until needed. After defrosting, cells were diluted with 2 mL Tris-EDTA (50 mM Tris-HCl, 0.5 mM EDTA, pH 7.5) containing Halt Protease Inhibitor (Pierce, Thermo Scientific, IL, USA) and homogenized with a 5 mL cell-douncer, followed by trituration through 21-gauge and 27-gauge needles. […]

2′/3′-O-(2-Aminoethyl-carbamoyl)-Adenosine-5′-triphosphate, labelled with ATTO-700 [ATP*]
binding coefficients from single receptor binding data: statistically identical to overall bulk measurements

Source: patent US12259539B2, “Optical microscope” (SMI DRUG DISCOVERY LIMITED, priority 2019, dated 2025)
